In the NIST ThermoML archive (doi:10.1016/j.fluid.2013.02.008) one finds activity coefficient data, which are given here for 15 compounds.

± gives the expanded uncertainty stated by the source.

The nature of the data set: activity coefficient (dimensionless); of the first substance listed, at infinite dilution; xn = mol fraction of the nth substance listed. Particulars: Liquid, Chromatography, x1 = 0.

Consider `CCCCCCCCCC` [decane] + CCCCCCCCCCCCCCO, for which the activity coefficient was 2.1 ± 0.14 (353 K, 101 kPa); 1.9 ± 0.13 (372.4 K, 101 kPa); 1.79 ± 0.12 (392 K, 101 kPa); 1.68 ± 0.11 (430.3 K, 101 kPa).

`CCCCCCCCCC` [decane] + CCCCCCCCCCCCO: the activity coefficient is 3.46 ± 0.24 (352.7 K, 101 kPa); 2.93 ± 0.2 (362.5 K, 101 kPa); 2.67 ± 0.18 (372.8 K, 101 kPa); 2.42 ± 0.16 (382.9 K, 101 kPa); 2.31 ± 0.16 (392 K, 101 kPa); 2.31 ± 0.16 (410.9 K, 101 kPa). The activity coefficient (430.6 K, 101 kPa) turned out to be 2.18 ± 0.15.

On to `CCCCCCCCCC` [decane] + CCCCCCCCCCO, for which the activity coefficient is 2.98 ± 0.2 (352.8 K, 101 kPa); 2.73 ± 0.19 (372.2 K, 101 kPa); 2.6 ± 0.18 (391.6 K, 101 kPa).

For `CCCCCCCCCC` [decane] + OCCCO, the activity coefficient runs as follows: (312.1 K, 101 kPa) 793 ± 55; (333.1 K, 101 kPa) 589 ± 41; (352.1 K, 101 kPa) 501 ± 34; (372.1 K, 101 kPa) 464 ± 32; (391.1 K, 101 kPa) 338 ± 23; (411.1 K, 101 kPa) 256 ± 18.

Take `CCCCCCCCCC` [decane] + OCCO: the activity coefficient (359.5 K, 101 kPa) was 1680 ± 120; the activity coefficient (373.1 K, 101 kPa) amounted to 1210 ± 84; the activity coefficient (392.4 K, 101 kPa) worked out at 804 ± 55; the activity coefficient (411.5 K, 101 kPa) turned out to be 557 ± 38; the activity coefficient (431 K, 101 kPa) was 454 ± 31.

On to `CCCCCC` [hexane] + CCCCCCCCCCCCCCO, for which the activity coefficient by setting is: (331.8 K, 101 kPa) 1.69 ± 0.11; (353 K, 101 kPa) 1.6 ± 0.11.

On to `CCCCCC` [hexane] + CCCCCCCCCCCCO, for which the activity coefficient runs as follows: (312.7 K, 101 kPa) 2.03 ± 0.14; (332.1 K, 101 kPa) 1.98 ± 0.13; (353.2 K, 101 kPa) 1.86 ± 0.13.

As to `CCCCCC` [hexane] + CCCCCCCCCCO, the activity coefficient worked out at 2.21 ± 0.15 (312.6 K, 101 kPa); 2.14 ± 0.15 (331.7 K, 101 kPa); 2.02 ± 0.14 (352.9 K, 101 kPa).

Consider `CCCCCC` [hexane] + OCCCO, for which the activity coefficient by setting is: (312.1 K, 101 kPa) 77.2 ± 5.3; (333.1 K, 101 kPa) 72.9 ± 5; (352.1 K, 101 kPa) 52.4 ± 3.6.

For `CCCCCC` [hexane] + OCCO, the activity coefficient reads like this: (313.2 K, 101 kPa) 97.8 ± 6.7; (332.1 K, 101 kPa) 88.1 ± 6; (353.5 K, 101 kPa) 80.6 ± 5.5.

With `CCCCCCCC` [octane] + CCCCCCCCCCCCCCO, the activity coefficient runs as follows: (353 K, 101 kPa) 1.87 ± 0.08; (372.4 K, 101 kPa) 1.76 ± 0.07; (391.9 K, 101 kPa) 1.69 ± 0.07; (410.6 K, 101 kPa) 1.63 ± 0.07; (430.6 K, 101 kPa) 1.61 ± 0.06.

In the case of `CCCCCCCC` [octane] + CCCCCCCCCCCCO, the activity coefficient runs as follows: (353.3 K, 101 kPa) 2.29 ± 0.16; (362.6 K, 101 kPa) 2.21 ± 0.15; (372.4 K, 101 kPa) 2.16 ± 0.15; (383 K, 101 kPa) 2.08 ± 0.14; (411.1 K, 101 kPa) 1.9 ± 0.13; (430.6 K, 101 kPa) 1.76 ± 0.12.

As to `CCCCCCCC` [octane] + CCCCCCCCCCO, the activity coefficient turned out to be 2.44 ± 0.17 (352.7 K, 101 kPa); 2.28 ± 0.16 (372.2 K, 101 kPa); 2.15 ± 0.15 (391.8 K, 101 kPa).

For the compound `CCCCCCCC` [octane] + OCCCO, the activity coefficient runs as follows: (312.1 K, 101 kPa) 314 ± 22; (333.1 K, 101 kPa) 283 ± 19; (352.1 K, 101 kPa) 224 ± 15; (372.1 K, 101 kPa) 187 ± 13; (391.1 K, 101 kPa) 148 ± 10.

As to `CCCCCCCC` [octane] + OCCO, the activity coefficient (332.1 K) was 631 ± 43, the activity coefficient (353.6 K) came out at 447 ± 31, the activity coefficient (372.7 K) turned out to be 383 ± 26 and the activity coefficient (392.4 K) amounted to 313 ± 22.
